Laboratory results: ChEMBL document CHEMBL5608141, “Identification of compartment-specific drug sensitivities in CRC organoid-stroma co-cultures” (2024)

What was measured:
Assay type in all cases: functional, Homo sapiens
Parameters in all cases: dose or concentration left out as unconfirmed
Colon cancer organoid [1] = test: Identification of compartment-specific drug sensitivities in O06 CRC organoid-stroma F06 CAF co-cultures. Organoid is transduced with Lucferase2-P2A-EGFP lentivirus, fibroblast with Renilla-dsRed lentivirus. Dual-Glo Luciferase assay is used to report viability data.
Colon cancer organoid [2] = test: Identification of compartment-specific drug sensitivities in O14 CRC organoid-stroma F14 CAF co-cultures. Organoid is transduced with Lucferase2-P2A-EGFP lentivirus, fibroblast with Renilla-dsRed lentivirus. Dual-Glo Luciferase assay is used to report viability data.
Colon cancer organoid [3] = test: Identification of compartment-specific drug sensitivities in O20 CRC organoid-stroma F20 CAF co-cultures. Organoid is transduced with Lucferase2-P2A-EGFP lentivirus, fibroblast with Renilla-dsRed lentivirus. Dual-Glo Luciferase assay is used to report viability data.
[4] = Transduced with Lucferase2-P2A-EGFP lentivirus
[5] = Transduced with Renilla-dsRed lentivirus

Structure (SMILES) | Cell Viability (Colon cancer organoid [1]; [4]) [%] | Cell Viability (Colon cancer organoid [1]; [5]) [%] | Cell Viability (Colon cancer organoid [2]; [4]) [%] | Cell Viability (Colon cancer organoid [2]; [5]) [%] | Cell Viability (Colon cancer organoid [3]; [4]) [%] | Cell Viability (Colon cancer organoid [3]; [5]) [%]
CN(C)C(=O)c1cc2cnc(Nc3ccc(N4CCNCC4)cn3)nc2n1C1CCCC1 [RIBOCICLIB] | 54.2961 | 126.231 | 43.0147 | 103.263 | 36.7036 | 144.514
Cn1c(C2(NC(=O)c3ccc4c(C5CCCC5)c(-c5ncc(Br)cn5)n(C)c4c3)CCC2)nc2ccc(/C=C/C(=O)O)cc21 [DELEOBUVIR] | 117.892 | 131.89 | 99.2157 | 60.0807 | 79.9036 | 130.288
Cc1nc(N2CC[C@H](O)C2)ncc1-c1cc(C(F)(F)F)cc2[nH]ncc12 | 124.32 | 144.84 | 76.9456 | 116.548 | 47.2711 | 153.575
C[C@]1(O)C[C@@H](c2nc(-c3ccc4ccc(-c5ccccc5)nc4c3)c3c(N)nccn32)C1 [LINSITINIB] | 53.0716 | 100.619 | 56.8923 | 65.041 | 60.6188 | 65.9185
Cl.O=C([C@@H](Cc1cccc(C(F)(F)F)c1)NS(=O)(=O)c1cc(F)c2c(c1)CCNC2)N1CCCC1 | 84.043 | 115.078 | 117.922 | 108.808 | 153.218 | 150.248
Cc1nnc2c3ccccc3c(N[C@@H](C)[C@H](c3ccccc3)N(C)C)nn12 | 95.7989 | 115.114 | 110.519 | 106.748 | 82.8594 | 127.368
COc1cc(C#N)ccc1S(=O)(=O)Nc1ccc2c(c1)cc(C)c(=O)n2C | 94.9001 | 111.598 | 105.069 | 87.2253 | 96.9289 | 124.149
Cc1cc(=O)n(C)c2cc(N3C(=O)CC[C@H](NS(=O)(=O)CC(C)C)[C@H]3c3ccc(Cl)cc3)ccc12 | 117.914 | 167.751 | 95.8197 | 121.413 | 108.181 | 166.434
Cn1cc(-c2ccc3occ(-c4cccc(-c5ccncc5)c4)c3n2)cn1 | 70.7683 | 132.305 | 87.0505 | 83.2978 | 65.7439 | 132.411
COc1cc(OC)cc(-c2noc(N3CCN(C)C4(CCN(c5ccnc(C)c5)CC4)C3)n2)c1 | 121.179 | 136.172 | 96.7615 | 90.1785 | 136.59 | 146.282
CC(C)(O)CNc1ncc(-c2ccnc(Nc3ccnc(Cl)c3)n2)c(CC2CC2)n1 | 30.6205 | 168.017 | 84.1319 | 170.669 | 67.8279 | 172.835
Cc1cc(CN)cc(C)c1-c1ncn(C)c1-c1cncn1C | 121.461 | 141.638 | 88.8994 | 94.9152 | 127.793 | 117.48
C[C@H]1CC(=O)Nc2cc(C(=O)NCCC3CC3)ccc2N1C(=O)N1CC2CC2C1 (stereo not given in full) | 115.835 | 132.849 | 144.576 | 93.1136 | 106.68 | 112.87
CC1=C(C#N)C(c2ccc3[nH]nc(C)c3c2)C(C#N)=C(C)N1 [BAY-474] | 116.723 | 162.783 | 60.4688 | 119.272 | 81.7867 | 102.241
O=C(N1CCS(=O)(=O)CC1)N1C[C@H](c2ccc(OC(F)(F)F)cc2)C[C@H](c2nc(C3CC3)no2)C1 [BAY-386] | 109.098 | 172.496 | 96.4412 | 110.483 | 61.9652 | 114.29
CCN(Cc1ccc(Cl)cc1)c1ncc(C(=O)NCCCN2CCCC2=O)c(NC2CCCC2)n1 | 93.3549 | 154.26 | 127.363 | 88.0275 | 67.2116 | 104.655
COc1cc2c(NC3CCN(C(C)C)CC3)nc(N3CCC(F)(F)CC3)nc2cc1OCCCN1CCCC1 | 88.0521 | 104.162 | 78.7749 | 75.7418 | 136.596 | 132.743
COc1cccc2c1C(=O)c1c(O)c3c(c(O)c1C2=O)CC(O)(C(=O)CO)CC3OC1CC(N)C(O)C(C)O1.Cl (stereo not given) | 14.9439 | 235.56 | 3.454 | 89.9373 | 5.3877 | 237.178
C[C@@H](c1cccc(CN)c1)n1cc(Cl)cc(C(N)=O)c1=N.Cl | 104.535 | 114.984 | 112.906 | 94.626 | 85.1763 | 93.567
CC(=O)Nc1ncc(CN2CCC[C@H](Cc3cc(C)nc(C)c3)C2)s1 [JNJ-65355394] | 116.935 | 172.928 | 108.182 | 61.6526 | 88.5022 | 103.797
Cc1ccc(NC(=O)Nc2cc(C(F)(F)F)ccc2F)cc1Nc1ccc2c(c1)NC(=O)/C2=C\c1ccc[nH]1 | 46.1941 | 95.0963 | 123.441 | 77.7474 | 98.8429 | 67.3177
CC(=O)N1CCC(c2ccc(C(=O)NC3=NCCN3)cc2C(F)(F)F)CC1 [BI 0054] | 124.071 | 95.7607 | 111.388 | 98.4803 | 121.714 | 122.015
O=C(Nc1cnc(Oc2ccc(F)cc2)nc1)N1CCc2ncccc2[C@@H]1c1ccc(F)cc1 [BAY-899] | 92.2798 | 100.101 | 105.834 | 99.8567 | 151.912 | 104.61
O=C(c1ccc(C(=O)N2CCC(N3CCCC3)CC2)c(Nc2ccccc2)c1)N1CCC(N2CCCC2)CC1 | 108.091 | 96.0319 | 131.975 | 97.2232 | 130.421 | 96.2949
Cc1c(NC(=O)c2cc(C(N)=O)nc3cc(F)ccc23)c(C(F)(F)F)nn1Cc1ccc(C#N)cc1 [BAY-876] | 11.8045 | 337.56 | 20.1463 | 59.1997 | 13.842 | 190.785
